Where two headings read alike, the source gives them in different places.
Target: T1, human kinase Mps-1 (Homo sapiens, UniProt P33981)
T1 construct: N-terminally GST-tagged human full length recombinant Mps-1 kinase; GST (N); purchased Invitrogen, Karslruhe, Germany PV4071
T1 sequence (P33981 1-857): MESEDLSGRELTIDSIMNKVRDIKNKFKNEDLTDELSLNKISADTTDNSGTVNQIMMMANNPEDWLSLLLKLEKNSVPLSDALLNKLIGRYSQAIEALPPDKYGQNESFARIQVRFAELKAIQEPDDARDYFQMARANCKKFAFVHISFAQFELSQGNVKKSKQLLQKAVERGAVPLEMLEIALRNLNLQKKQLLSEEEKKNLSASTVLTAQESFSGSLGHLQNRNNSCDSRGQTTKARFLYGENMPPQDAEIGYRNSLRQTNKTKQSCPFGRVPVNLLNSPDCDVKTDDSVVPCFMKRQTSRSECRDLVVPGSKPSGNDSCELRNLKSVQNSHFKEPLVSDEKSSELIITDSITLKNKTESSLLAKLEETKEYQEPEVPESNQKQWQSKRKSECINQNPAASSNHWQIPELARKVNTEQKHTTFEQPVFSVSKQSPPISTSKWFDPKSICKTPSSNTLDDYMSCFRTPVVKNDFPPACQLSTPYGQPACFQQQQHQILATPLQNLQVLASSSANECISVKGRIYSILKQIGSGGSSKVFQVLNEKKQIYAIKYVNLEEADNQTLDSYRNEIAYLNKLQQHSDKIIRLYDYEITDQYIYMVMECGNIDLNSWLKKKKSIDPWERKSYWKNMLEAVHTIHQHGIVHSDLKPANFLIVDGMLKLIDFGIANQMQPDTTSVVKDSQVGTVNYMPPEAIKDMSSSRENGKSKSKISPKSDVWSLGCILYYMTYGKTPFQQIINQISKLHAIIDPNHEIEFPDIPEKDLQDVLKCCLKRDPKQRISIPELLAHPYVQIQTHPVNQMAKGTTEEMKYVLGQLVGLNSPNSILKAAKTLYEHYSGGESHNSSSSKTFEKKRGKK
Assay: Mps-1 kinase assay (TR-FRET)
Assay type: biochemical
Conditions: N-terminally GST-tagged human full length recombinant Mps-1, 10 μM ATP, 1 μM biotinylated peptide substrate, 60 min at 22° C.

| IC50 (read-out: Mps1 IC50) [nM] | SMILES | IC50 (Mps1 IC50 [nM]) [nM] |
| --- | --- | --- |
| – | O=C(NC1CC1)c1ccc(-c2cnc3c(NCCO)nccn23)cc1O [Example 7-70, N-cyclopropyl-2-hydroxy-4-{8-[(2-hydroxyethyl)amino]imi-dazo[1,2-a]pyrazin-3-yl}benzamide] | 414 |
| – | O=C(NC1CC1)c1ccc(-c2cnc3c(NCCCN4CCOCC4)nccn23)cc1O [Example 7-71, N-cyclopropyl-2-hydroxy-4-(8-{[3-(morpholin-4-yl)propyl]amino}imi-dazo[1,2-a]pyrazin-3-yl)benzamide] | 304 |
| – | O=C(NC1CC1)c1ccc(-c2cnc3c(NCC4CCCO4)nccn23)cc1O (stereo not shown) [Example 7-72, N-cyclopropyl-2-hydroxy-4-{8-[(tetrahydrofuran-2-ylmethyl)amino]imi-dazo[1,2-a]pyrazin-3-yl}benzamide] | 36.3 |
| – | O=C(NC1CC1)c1ccc(-c2cnc3c(NCCCN4CCCC4=O)nccn23)cc1O [Example 7-73, N-cyclopropyl-2-hydroxy-4-(8-{[3-(2-oxopyrrolidin-1-yl)propyl]amino}imi-dazo[1,2-a]pyrazin-3-yl)benzamide] | 593 |
| – | O=C(NC1CC1)c1ccc(-c2cnc3c(NCc4ccc(F)cc4)nccn23)cc1O [Example 7-74, N-cyclopropyl-4-{8-[(4-fluorobenzyl)amino]imi-dazo[1,2-a]pyrazin-3-yl}-2-hydroxybenzamide] | 98.2 |
| 2030 | O=C(NC1CC1)c1ccc(-c2cnc3c(NCc4ccccc4)nccn23)cc1O [Example 7-75, 4-[8-(benzylamino)imidazo[1,2-a]pyrazin-3-yl]-N-cyclopropyl-2-hydroxybenzamide] | – |
| – | O=C(NC1CC1)c1ccc(-c2cnc3c(NCc4cccs4)nccn23)cc1O [Example 7-76, N-cyclopropyl-2-hydroxy-4-{8-[(thiophen-2-ylmethyl)amino]imi-dazo[1,2-a]pyrazin-3-yl}benzamide] | 35.8 |
| 63.1 | CCNc1nccn2c(-c3ccc(C(=O)NC4CC4)c(O)c3)cnc12 [Example 7-77, N-cyclopropyl-4-[8-(ethylamino)imidazo[1,2-a]pyrazin-3-yl]-2-hydroxybenzamide] | – |
| – | O=C(NC1CC1)c1ccc(-c2cnc3c(NCCCO)nccn23)cc1O [Example 7-78, N-cyclopropyl-2-hydroxy-4-{8-[(3-hydroxypropyl)amino]imi-dazo[1,2-a]pyrazin-3-yl}benzamide] | 93.1 |
| – | O=C(NC1CC1)c1ccc(-c2cnc3c(NCc4ccco4)nccn23)cc1O [Example 7-79, N-cyclopropyl-4-{8-[(furan-2-ylmethyl)amino]imi-dazo[1,2-a]pyrazin-3-yl}-2-hydroxybenzamide] | 77.3 |
| – | CC(C)CNc1nccn2c(-c3ccc(C(=O)NC4CC4)c(O)c3)cnc12 [Example 7-80, N-cyclopropyl-2-hydroxy-4-{8-[(2-methylpropyl)amino]imi-dazo[1,2-a]pyrazin-3-yl}benzamide] | 15.5 |
| – | N#CCCNc1nccn2c(-c3ccc(C(=O)NC4CC4)c(O)c3)cnc12 [Example 7-81, 4-{8-[(2-cyanoethyl)amino]imi-dazo[1,2-a]pyrazin-3-yl}-N-cyclopropyl-2-hydroxybenzamide] | 51.3 |
| – | O=C(NC1CC1)c1ccc(-c2cnc3c(NCC(O)C(F)(F)F)nccn23)cc1O (stereo not shown) [Example 7-82, N-cyclopropyl-2-hydroxy-4-{8-[(3,3,3-trifluoro-2-hydroxypropyl)amino]imi-dazo[1,2-a]pyrazin-3-yl}benzamide] | 56.7 |
| – | O=C(NC1CC1)c1ccc(-c2cnc3c(NCCC(F)(F)F)nccn23)cc1O [Example 7-83, N-cyclopropyl-2-hydroxy-4-{8-[(3,3,3-trifluoropropyl)amino]imi-dazo[1,2-a]pyrazin-3-yl}benzamide] | 22.3 |
| – | CC(O)CNc1nccn2c(-c3ccc(C(=O)NC4CC4)c(O)c3)cnc12 (stereo not shown) [Example 7-84, N-cyclopropyl-2-hydroxy-4-{8-[(2-hydroxypropyl)amino]imi-dazo[1,2-a]pyrazin-3-yl}benzamide] | 96.9 |
| – | Cn1cc(CNc2nccn3c(-c4ccc(C(=O)NC5CC5)c(O)c4)cnc23)cn1 [Example 7-85, N-cyclopropyl-2-hydroxy-4-(8-{[(1-methyl-1H-pyrazol-4-yl)methyl]amino}imi-dazo[1,2-a]pyrazin-3-yl)benzamide] | 105 |
| – | CCOC(C)CNc1nccn2c(-c3ccc(C(=O)NC4CC4)c(O)c3)cnc12 (stereo not shown) [Example 7-86, N-cyclopropyl-4-{8-[(2-ethoxypropyl)amino]imi-dazo[1,2-a]pyrazin-3-yl}-2-hydroxybenzamide] | 268 |

| IC50 (read-out: Mps1 IC50) [nM] | SMILES | IC50 (Mps1 IC50 [nM]) [nM] |
| --- | --- | --- |
| – | CC(C)(O)CNc1nccn2c(-c3ccc(C(=O)NC4CC4)c(O)c3)cnc12 [Example 7-87, N-cyclopropyl-2-hydroxy-4-{8-[(2-hydroxy-2-methylpropyl)amino]imi-dazo[1,2-a]pyrazin-3-yl}benzamide] | 160 |
| – | O=C(NC1CC1)c1ccc(-c2cnc3c(NCc4ccc(Cl)s4)nccn23)cc1O [Example 7-88, 4-(8-{[(5-chlorothiophen-2-yl)methyl]amino}imi-dazo[1,2-a]pyrazin-3-yl)-N-cyclopropyl-2-hydroxybenzamide] | 91.3 |
| – | O=C(NC1CC1)c1ccc(-c2cnc3c(NCC4CCCCO4)nccn23)cc1O (stereo not shown) [Example 7-89, N-cyclopropyl-2-hydroxy-4-{8-[(tetrahydro-2H-pyran-2-ylmethyl)amino]imi-dazo[1,2-a]pyrazin-3-yl}benzamide] | 247 |
| 29.7 | CCCNc1nccn2c(-c3ccc(C(=O)NC4CC4)c(C)c3)cnc12 [Example 7-90, N-cyclopropyl-2-methyl-4-[8-(propylamino)imidazo[1,2-a]pyrazin-3-yl]benzamide] | – |
| – | Cc1cc(-c2cnc3c(NCCO)nccn23)ccc1C(=O)NC1CC1 [Example 7-91, N-cyclopropyl-4-{8-[(2-hydroxyethyl)amino]imi-dazo[1,2-a]pyrazin-3-yl}-2-methylbenzamide] | 363 |
| – | Cc1cc(-c2cnc3c(NCCCN4CCOCC4)nccn23)ccc1C(=O)NC1CC1 [Example 7-92, N-cyclopropyl-2-methyl-4-(8-{[3-(morpholin-4-yl)propyl]amino}imi-dazo[1,2-a]pyrazin-3-yl)benzamide] | 389 |
| – | Cc1cc(-c2cnc3c(NCCC(C)C)nccn23)ccc1C(=O)NC1CC1 [Example 7-93, N-cyclopropyl-2-methyl-4-{8-[(3-methylbutyl)amino]imi-dazo[1,2-a]pyrazin-3-yl}benzamide] | 13.2 |
| – | Cc1cc(-c2cnc3c(NCC4CCCO4)nccn23)ccc1C(=O)NC1CC1 (stereo not shown) [Example 7-94, N-cyclopropyl-2-methyl-4-{8-[(tetrahydrofuran-2-ylmethyl)amino]imi-dazo[1,2-a]pyrazin-3-yl}benzamide] | 80.8 |
| – | Cc1cc(-c2cnc3c(NCCCN4CCCC4=O)nccn23)ccc1C(=O)NC1CC1 [Example 7-95, N-cyclopropyl-2-methyl-4-(8-{[3-(2-oxopyrrolidin-1-yl)propyl]amino}imi-dazo[1,2-a]pyrazin-3-yl)benzamide] | 562 |
| – | COCCNc1nccn2c(-c3ccc(C(=O)NC4CC4)c(C)c3)cnc12 [Example 7-96, N-cyclopropyl-4-{8-[(2-methoxyethyl)amino]imi-dazo[1,2-a]pyrazin-3-yl}-2-methylbenzamide] | 229 |
| – | Cc1cc(-c2cnc3c(NCc4ccccc4F)nccn23)ccc1C(=O)NC1CC1 [Example 7-97, N-cyclopropyl-4-{8-[(2-fluorobenzyl)amino]imi-dazo[1,2-a]pyrazin-3-yl}-2-methylbenzamide] | 31.6 |
| – | Cc1cc(-c2cnc3c(NCc4ccc(F)cc4)nccn23)ccc1C(=O)NC1CC1 [Example 7-98, N-cyclopropyl-4-{8-[(4-fluorobenzyl)amino]imi-dazo[1,2-a]pyrazin-3-yl}-2-methylbenzamide] | 39.6 |
| – | Cc1cc(-c2cnc3c(NCCCCO)nccn23)ccc1C(=O)NC1CC1 [Example 7-99, N-cyclopropyl-4-{8-[(4-hydroxybutyl)amino]imi-dazo[1,2-a]pyrazin-3-yl}-2-methylbenzamide] | 70.8 |
| – | Cc1cc(-c2cnc3c(NCC(F)(F)F)nccn23)ccc1C(=O)NC1CC1 [Example 7-100] | 217 |
| 34.1 | Cc1cc(-c2cnc3c(NCc4ccccc4)nccn23)ccc1C(=O)NC1CC1 [Example 7-101, 4-[8-(benzylamino)imidazo[1,2-a]pyrazin-3-yl]-N-cyclopropyl-2-methylbenzamide] | – |
| – | Cc1cc(-c2cnc3c(NCc4cccs4)nccn23)ccc1C(=O)NC1CC1 [Example 7-102, N-cyclopropyl-2-methyl-4-{8-[(thiophen-2-ylmethyl)amino]imi-dazo[1,2-a]pyrazin-3-yl}benzamide] | 18.7 |
| 145 | CCNc1nccn2c(-c3ccc(C(=O)NC4CC4)c(C)c3)cnc12 [Example 7-103, N-cyclopropyl-4-[8-(ethylamino)imidazo[1,2-a]pyrazin-3-yl]-2-methylbenzamide] | – |

— patent publication US20130303532A1, “IMIDAZOPYRAZINES FOR USE AS MPS-1 AND TKK INHIBITORS IN THE TREATMENT HYPERPROLIFERATIVE DISORDERS” (BAYER INTELLECTUAL PROPERTY GmbH, priority 2010, published 2013)
